Data: ChEMBL document CHEMBL2429799, “Systematic replacement of amides by 1,4-disubstituted[1,2,3]triazoles in Leu-enkephalin and the impact on the delta opioid receptor activity” (Bioorg Med Chem Lett, 2013)
Activity calls are given as the source filed them. No cut-off for these calls is given here.

Tests used:
[1] = biological target: Delta-type opioid receptor (Rattus norvegicus, UniProt P33533); assay: Displacement of [3H]-deltorphin 2 from delta opioid receptor in rat GH3 cells after 60 mins by scintillation counting analysis; assay type: cell-based
Sequence of Delta-type opioid receptor (Rattus norvegicus, UniProt P33533) (P33533 whole entry): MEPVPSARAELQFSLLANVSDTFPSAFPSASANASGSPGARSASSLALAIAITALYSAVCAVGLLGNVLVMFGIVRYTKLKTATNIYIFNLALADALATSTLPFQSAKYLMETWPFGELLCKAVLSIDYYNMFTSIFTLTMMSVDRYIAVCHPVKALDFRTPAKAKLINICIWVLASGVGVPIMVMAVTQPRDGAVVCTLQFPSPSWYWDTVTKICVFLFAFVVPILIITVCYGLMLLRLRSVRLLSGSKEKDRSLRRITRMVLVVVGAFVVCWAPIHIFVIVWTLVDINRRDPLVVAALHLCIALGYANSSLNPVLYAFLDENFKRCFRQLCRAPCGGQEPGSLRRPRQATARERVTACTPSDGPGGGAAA

[2] = biological target: Delta-type opioid receptor (Mus musculus, UniProt P32300); assay: Agonist activity at delta opioid receptor in mouse vas deferens assessed as inhibition of electrically-stimulated muscle contraction
Sequence of Delta-type opioid receptor (Mus musculus, UniProt P32300) (P32300 whole entry): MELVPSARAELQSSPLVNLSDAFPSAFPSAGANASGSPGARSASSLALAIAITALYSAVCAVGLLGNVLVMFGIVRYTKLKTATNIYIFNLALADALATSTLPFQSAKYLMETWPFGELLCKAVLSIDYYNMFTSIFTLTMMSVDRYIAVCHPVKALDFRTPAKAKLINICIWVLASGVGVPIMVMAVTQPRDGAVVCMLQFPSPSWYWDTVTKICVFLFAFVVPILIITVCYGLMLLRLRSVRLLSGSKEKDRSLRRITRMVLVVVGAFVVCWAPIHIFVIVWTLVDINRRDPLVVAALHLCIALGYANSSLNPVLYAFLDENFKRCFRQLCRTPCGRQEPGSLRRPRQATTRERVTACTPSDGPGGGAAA

[3] = Agonist activity at delta opioid receptor in mouse/rat DRGF11 hybrid cells expressing GFP assessed as induction of ERK1/2 phosphorylation at 10^-9 to 10^-5 M after 5 mins by Western blotting analysis

Row | SMILES | Ki [1] | EC50 [2] | Activity [3]
1 | CC(C)C[C@H](NC(=O)[C@H](Cc1ccccc1)NC(=O)CNC(=O)Cn1cc([C@@H](N)Cc2ccc(O)cc2)nn1)C(=O)O | > 1000 nM | > 1500 nM | 
2 | CC(C)C[C@@H](C(=O)O)n1cc([C@H](Cc2ccccc2)NC(=O)CNC(=O)CNC(=O)[C@@H](N)Cc2ccc(O)cc2)nn1 | 89 nM | 830 nM | Active
3 | CC(C)C[C@H](NC(=O)[C@H](Cc1ccccc1)n1cc(CNC(=O)CNC(=O)[C@@H](N)Cc2ccc(O)cc2)nn1)C(=O)O | 460 nM | > 1500 nM | 
4 | CC(C)C[C@H](NC(=O)[C@H](Cc1ccccc1)NC(=O)Cn1cc(CNC(=O)[C@@H](N)Cc2ccc(O)cc2)nn1)C(=O)O | > 1000 nM | > 1500 nM | 
